molecular target: PD-1/PD-L1 (Homo sapiens (Human), UniProt Q9NZQ7); assay: PD-1/PD-L1 binding assay (HTRF)
Method in brief: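 Fc-tagged human PD-1 (25-167) and His-tagged PD-L1 (19-238), listed as […] and 10 nM final, preincubated 40 min with inhibitors in PBS pH 7.4, 0.05% Tween-20, 0.1% BSA, 1% DMSO, 25 °C. Eu anti-IgG/APC anti-His added, 60 min, 665/620 nm HTRF ratio; IC50 fitted from percent control activity.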

Chain of PD-1/PD-L1 (Q9NZQ7 19-238): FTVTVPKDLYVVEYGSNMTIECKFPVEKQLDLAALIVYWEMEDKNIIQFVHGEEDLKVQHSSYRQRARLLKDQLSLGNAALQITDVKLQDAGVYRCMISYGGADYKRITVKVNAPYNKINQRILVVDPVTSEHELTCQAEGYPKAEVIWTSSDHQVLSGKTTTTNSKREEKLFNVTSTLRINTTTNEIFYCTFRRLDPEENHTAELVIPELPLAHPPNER

Row | Compound | IC50
1 | Cc1c(NC(=O)c2nc3c(n2C)CCN(C)C3)cccc1-c1cccc(NC(=O)c2nc3c(n2C)CCN(C2CCC(C)(C(=O)O)CC2)C3)c1Cl (stereo not drawn) [Example 118, 4-(2-((2-chloro-3′-(1,5-dimethyl-4,5,6,7-tetrahydro-1H-imidazo[4,5-c]pyridine-2-carboxamido)-2′-methyl-[1,1′-biphenyl]-3-yl)carbamoyl)-1-methyl-1,4,6,7-tetrahydro-5H-imidazo[4,5-c]pyridin-5-yl)-1-methylcyclohexane-1-carboxylic acid] | ≤ 10 nM
2 | Cn1c(C(=O)Nc2cccc(-c3cccc(NC(=O)c4nc5c(n4C)CCN(C4CCOCC4)C5)c3Cl)c2Cl)nc2c1CCN(CC[C@H]1CC[C@H](C(=O)O)CC1)C2 [Example 92, trans-4-(2-(2-((2,2′-dichloro-3′-(1-methyl-5-(tetrahydro-2H-pyran-4-yl)-4,5,6,7-tetrahydro-1H-imidazo[4,5-c]pyridine-2-carboxamido)-[1,1′-biphenyl]-3-yl)carbamoyl)-1-methyl-1,4,6,7-tetrahydro-5H-imidazo[4,5-c]pyridin-5-yl)ethyl)cyclohexane-1-carboxylic acid] | ≤ 10 nM
3 | CN1CCc2c(nc(C(=O)Nc3cccc(-c4cccc(NC(=O)c5nc6c(n5C)CCN(C[C@H]5CC[C@H](C(=O)O)CC5)C6)c4Cl)c3Cl)n2C)C1 [Example 60, trans-4-((2-(2,2′-dichloro-3′-(1,5-dimethyl-4,5,6,7-tetrahydro-1H-imidazo[4,5-c]pyridine-2-carboxamido)biphenyl-3-ylcarbamoyl)-1-methyl-6,7-dihydro-1H-imidazo[4,5-c]pyridin-5(4H)-yl)methyl)cyclohexane-1-carboxylic acid] | ≤ 10 nM
4 | Cc1c(-c2nc3c(s2)CN(C(=O)CN(C)C(C)C)C3)cccc1-c1cccc(NC(=O)c2nc3c(n2C)CCN(C[C@H]2CC[C@H](C(=O)O)CC2)C3)c1Cl [Compound 158, trans-4-((2-(2-chloro-3′-(5-(2-(isopropyl(methyl)amino)acetyl)-5,6-dihydro-4H-pyrrolo[3,4-d]thiazol-2-yl)-2′-methylbiphenyl-3-ylcarbamoyl)-1-methyl-6,7-dihydro-1H-imidazo[4,5-c]pyridin-5(4H)-yl)methyl)cyclohexane-1-carboxylic acid] | ≤ 10 nM
5 | CN1CCc2c(nc(C(=O)Nc3cccc(-c4cccc(NC(=O)c5nc6c(n5C)CCN(CC[C@H]5CC[C@H](C(=O)O)CC5)C6)c4Cl)c3C#N)n2C)C1 [Compound 150, trans-4-(2-(2-(2-chloro-2′-cyano-3′-(1,5-dimethyl-4,5,6,7-tetrahydro-1H-imidazo[4,5-c]pyridine-2-carboxamido)biphenyl-3-ylcarbamoyl)-1-methyl-6,7-dihydro-1H-imidazo[4,5-c]pyridin-5(4H)-yl)ethyl)cyclohexane-1-carboxylic acid] | ≤ 10 nM
6 | Cc1c(NC(=O)c2nc3c(n2C)CCN(C[C@H](C)O)C3)cccc1-c1cccc(NC(=O)c2nc3c(n2C)CCN(C(C)C)C3)c1Cl [Example 45, (S)—N-(2-chloro-3′-(5-(2-hydroxypropyl)-1-methyl-4,5,6,7-tetrahydro-1H-imidazo[4,5-c]pyridine-2-carboxamido)-2′-methylbiphenyl-3-yl)-5-isopropyl-1-methyl-4,5,6,7-tetrahydro-1H-imidazo[4,5-c]pyridine-2-carboxamide] | ≤ 10 nM
7 | CCN1CCc2c(nc(C(=O)Nc3cccc(-c4cccc(NC(=O)c5nc6c(n5C)CCN(CC57CCC(C(=O)O)(CC5)C7)C6)c4Cl)c3Cl)n2C)C1 [Compound 176, 4-((2-(2,2′-dichloro-3′-(5-ethyl-1-methyl-4,5,6,7-tetrahydro-1H-imidazo[4,5-c]pyridine-2-carboxamido)biphenyl-3-ylcarbamoyl)-1-methyl-6,7-dihydro-1H-imidazo[4,5-c]pyridin-5(4H)-yl)methyl)bicyclo[2.2.1]heptane-1-carboxylic acid] | ≤ 10 nM
8 | Cc1c(-c2nc3c(o2)CN(C(=O)CN(C)C)C3)cccc1-c1cccc(NC(=O)c2nc3c(n2C)CCN(C2CCC(C)(C(=O)O)CC2)C3)c1Cl (stereo not drawn) [Compound 168, 4-(2-((2-chloro-3′-(5-(dimethylglycyl)-5,6-dihydro-4H-pyrrolo[3,4-d]oxazol-2-yl)-2′-methyl-[1,1′-biphenyl]-3-yl)carbamoyl)-1-methyl-1,4,6,7-tetrahydro-5H-imidazo[4,5-c]pyridin-5-yl)-1-methylcyclohexane-1-carboxylic acid] | ≤ 10 nM
9 | Cn1c(C(=O)Nc2cccc(-c3cccc(NC(=O)c4nc5c(n4C)CCN(C[C@H]4CC[C@H](C(=O)O)CC4)C5)c3C#N)c2Cl)nc2c1CCN(C1CCOCC1)C2 [Compound 157, trans-4-((2-((2′-chloro-2-cyano-3′-(1-methyl-5-(tetrahydro-2H-pyran-4-yl)-4,5,6,7-tetrahydro-1H-imidazo[4,5-c]pyridine-2-carboxamido)-[1,1′-biphenyl]-3-yl)carbamoyl)-1-methyl-1,4,6,7-tetrahydro-5H-imidazo[4,5-c]pyridin-5-yl)methyl)cyclohexane-1-carboxylic acid] | ≤ 10 nM

More lines, now with the values ahead:

Row | IC50 | Compound
10 | ≤ 10 nM | Cn1c(C(=O)Nc2cccc(-c3cccc(-c4nc5c(o4)CN(C(=O)CN4CC(O)C4)C5)c3Cl)c2Cl)nc2c1CCN(CCC1CCC(C(=O)O)CC1)C2 (stereo not drawn) [Compound 170, 4-(2-(2-(2,2′-dichloro-3′-(5-(2-(3-hydroxyazetidin-1-yl)acetyl)-5,6-dihydro-4H-pyrrolo[3,4-d]oxazol-2-yl)biphenyl-3-ylcarbamoyl)-1-methyl-6,7-dihydro-1H-imidazo[4,5-c]pyridin-5(4H)-yl)ethyl)cyclohexane-1-carboxylic acid]
11 | ≤ 10 nM | CN1CCc2c(nc(C(=O)Nc3cccc(-c4cccc(NC(=O)c5nc6c(n5C)CCN(C[C@H]5CC[C@@H](C(=O)O)CC5)C6)c4Cl)c3Cl)n2C)C1 [Example 69, cis-4-((2-((2,2′-dichloro-3′-(1,5-dimethyl-4,5,6,7-tetrahydro-1H-imidazo[4,5-c]pyridine-2-carboxamido)-[1,1′-biphenyl]-3-yl)carbamoyl)-1-methyl-1,4,6,7-tetrahydro-5H-imidazo[4,5-c]pyridin-5-yl)methyl)cyclohexane-1-carboxylic acid]
12 | ≤ 10 nM | Cc1c(-c2nc3c(o2)CN(C(=O)CN2CC[C@](C)(C(=O)O)C2)C3)cccc1-c1cccc(NC(=O)c2nc3c(n2C)CCN(C)C3)c1Cl [Compound 163, (S)-1-(2-(2-(2′-chloro-3′-(1,5-dimethyl-4,5,6,7-tetrahydro-1H-imidazo[4,5-c]pyridine-2-carboxamido)-2-methyl-[1,1′-biphenyl]-3-yl)-4,6-dihydro-5H-pyrrolo[3,4-d]oxazol-5-yl)-2-oxoethyl)-3-methylpyrrolidine-3-carboxylic acid]
13 | ≤ 10 nM | CCN(C)CCC(=O)N1Cc2nc(-c3cccc(-c4cccc(NC(=O)c5nc6c(n5C)CCN(C5CCC(C)(C(=O)O)CC5)C6)c4Cl)c3Cl)oc2C1 (stereo not drawn) [Compound 174, 4-(2-((2,2′-dichloro-3′-(5-(3-(ethyl(methyl)amino)propanoyl)-5,6-dihydro-4H-pyrrolo[3,4-d]oxazol-2-yl)-[1,1′-biphenyl]-3-yl)carbamoyl)-1-methyl-1,4,6,7-tetrahydro-5H-imidazo[4,5-c]pyridin-5-yl)-1-methylcyclohexane-1-carboxylic acid]
14 | ≤ 10 nM | Cn1c(C(=O)Nc2cccc(-c3cccc(NC(=O)c4nc5c(n4C)CCN(C4CCC(O)CC4)C5)c3Cl)c2Cl)nc2c1CCN(CC13CCC(C(=O)O)(CC1)C3)C2 (single isomer, unassigned) [183 (compound 183-1), 4-((2-(2,2′-dichloro-3′-(5-(4-hydroxycyclohexyl)-1-methyl-4,5,6,7-tetrahydro-1H-imidazo[4,5-c]pyridine-2-carboxamido)biphenyl-3-ylcarbamoyl)-1-methyl-6,7-dihydro-1H-imidazo[4,5-c]pyridin-5(4H)-yl)methyl)bicyclo[2.2.1]heptane-1-carboxylic acid]
15 | ≤ 10 nM | CCN1CCc2c(nc(C(=O)Nc3cccc(-c4cccc(NC(=O)c5nc6c(n5C)CCN(C[C@H]5CC[C@H](C(=O)O)CC5)C6)c4C#N)c3Cl)n2C)C1 [Compound 156, trans-4-((2-((2′-chloro-2-cyano-3′-(5-ethyl-1-methyl-4,5,6,7-tetrahydro-1H-imidazo[4,5-c]pyridine-2-carboxamido)-[1,1′-biphenyl]-3-yl)carbamoyl)-1-methyl-1,4,6,7-tetrahydro-5H-imidazo[4,5-c]pyridin-5-yl)methyl)cyclohexane-1-carboxylic acid]
16 | ≤ 10 nM | Cc1c(NC(=O)c2cc(CN3CC[C@@H](C(=O)O)C3)cn(C)c2=O)cccc1-c1cccc(NC(=O)c2nc3c(n2C)CCN(C)C3)c1Cl [Example 49, (R)-1-((5-(2′-chloro-3′-(1,5-dimethyl-4,5,6,7-tetrahydro-1H-imidazo[4,5-c]pyridine-2-carboxamido)-2-methylbiphenyl-3-ylcarbamoyl)-1-methyl-6-oxo-1,6-dihydropyridin-3-yl)methyl)pyrrolidine-3-carboxylic acid]
17 | ≤ 10 nM | CN1CCc2c(nc(C(=O)Nc3cccc(-c4cccc(NC(=O)c5nc6c(n5C)CCN(CC57CCC(C(=O)O)(CC5)CC7)C6)c4Cl)c3Cl)n2C)C1 [Example 81, 4-((2-((2,2′-dichloro-3′-(1,5-dimethyl-4,5,6,7-tetrahydro-1H-imidazo[4,5-c]pyridine-2-carboxamido)-[1,1′-biphenyl]-3-yl)carbamoyl)-1-methyl-1,4,6,7-tetrahydro-5H-imidazo[4,5-c]pyridin-5-yl)methyl)bicyclo[2.2.2]octane-1-carboxylic acid]
18 | ≤ 10 nM | CN1CCc2c(nc(C(=O)Nc3cccc(-c4cccc(NC(=O)c5nc6c(n5C)CCN(C[C@H]5CC[C@H](C(=O)O)CC5)C6)c4C#N)c3Cl)n2C)C1 [Compound 147, trans-4-((2-((2′-chloro-2-cyano-3′-(1,5-dimethyl-4,5,6,7-tetrahydro-1H-imidazo[4,5-c]pyridine-2-carboxamido)-[1,1′-biphenyl]-3-yl)carbamoyl)-1-methyl-1,4,6,7-tetrahydro-5H-imidazo[4,5-c]pyridin-5-yl)methyl)cyclohexane-1-carboxylic acid]

Reference: patent US10806785B2, “Immunomodulator compounds and methods of use” (Incyte Corporation, priority 2016, dated 2020)
